Series [1] in a line: Metabolic stability test (human liver microsome, hepatic intrinsic clearance). The series is classed as in vitro ADME. As to conditions: human liver microsomes, pH 7.4; human liver microsome 0.2 mg/mL, test compound 0.001 mmol/L, 37° C., 0, 10 and 20 minutes. The protocol: A metabolic reaction was initiated by adding and mixing a test compound solution (final concentration 0.001 mmol/L) and a NADH/NADPH solution (final concentration 1 mmol/L) to a human liver microsome solution (final concentration 100 mmol/L potassium phosphate buffer solution (pH 7.4), 5 mmol/L magnesium chloride, 0.2 mg/ml, human liver microsome). A solution of the internal standard in methanol was prepared and used as a quenching solution.
Specifically, a metabolic reaction was initiated by adding and mixing 2.5 μL of a solution of a test compound in acetonitrile to 222.5 μL of a human liver microsome solution in ice water, followed by preincubation at 37° C. for 1 minute, and then adding 25 μL of a NADH/NADPH solution thereto.
The mixture was centrifuged (6130 g, 4° C., 10 minutes) and the supernatant was used as a sample for LC-MS/MS.
Peak area ratio ([peak area of test compound]/[peak area of internal standard]) was calculated for the test compound and the internal standard.
The residual ratio of the test compound was calculated from ([Ratio of peak areas at each reaction time]/[Ratio of peak areas at 0 minute reaction time]).
Background: Liver microsomes are vesicles of endoplasmic reticulum, rich in cytochrome P450 enzymes.

Series [2] concerns the target T1, serotonin (5-HT) uptake (Rattus norvegicus, UniProt P31652).
T1 construct: used as crude synaptosomal fraction; from tissue; host or cells: rat frontal cortex, crude synaptosomal fraction
Put plainly: Serotonin (5-HT) uptake inhibitory activity in rat brain synaptosome. The format is biochemical. As to conditions: rat frontal cortex synaptosome, tritium-labeled 5-HT 8 nM; read-out: IC50 (nM), serotonin (5-HT) uptake inhibition. The protocol:
Male Wistar rats were decapitated, each brain was removed, and the frontal cortex was cut out. […] The homogenate was centrifuged at 1000 g at 4° C. for 10 minutes, and the supernatant was further centrifuged at 20000 g at 4° C. for 20 minutes. The pellet was suspended in an incubation buffer (20 mM Hepes buffer (pH 7.4) containing 10 mM glucose, 145 mM sodium chloride, 4.5 mM potassium chloride, 1.2 mM magnesium chloride and 1.5 mM calcium chloride) and used as crude synaptosomal fraction.
Each well of a 96-well round-bottom plate was used for the uptake reaction in a total volume of 200 μL solution containing purgurin (final concentration 10 μM) and ascorbic acid (final concentration 0.2 mg/mL). In other words, solvent, unlabeled 5-HT or step-diluted test compound was added to each well, and one-tenth of the final volume of the synaptosomal fraction was added to each well, followed by pre-incubation at 37° C. for 10 minutes, and then tritium-labeled 5-HT solution (final concentration 8 nM) was added and the uptake reaction was initiated at 37° C. After 10 minutes, the uptake reaction was terminated by suction filtration onto a 96-well glass fiber filter plate. The filters were rinsed with cold physi-ological saline solution, dried thoroughly, and micro scintillation 0 (Perkin-Elmer) was added thereto. Then, the residual radioactivity on the filters was measured.
The uptake value when only solvent was added was set as 100%, the uptake value when unlabeled 5-HT (final concentration 10 μM) was added as 0% (nonspecific uptake value), and the 50% inhibitory concentration was calculated from the concentration of the test compound and its inhibitory activity.

The target in series [3] is T2, CYP2C9 (Homo sapiens, UniProt P11712).
T2 construct: a human liver microsome solution containing three CYP-specific substrates; from tissue; host or cells: human liver microsomes
Put plainly: CYP inhibition test (1): inhibition rate (%) at one concentration, CYP2C9. The series is classed as in vitro ADME. As to conditions: human liver microsomes, pH 7.4, probe diclofenac (0.005 mmol/L); test compound 0.01 mmol/L, human liver microsome 0.1 mg/mL, substrate diclofenac, 37° C. 10 minutes; read-out: inhibition rate (%) 2C9. The protocol:
(§1) A metabolic reaction was initiated by adding and mixing a test compound solution (final concentration 0.01 mmol/L) and a NADH/NADPH solution (final concentration 1 mmol/L) to a human liver microsome solution containing three CYP-specific substrates (final concentration 100 mmol/L potassium phosphate buffer solution (pH 7.4), 5 mmol/L magnesium chloride, 0.1 mg/mL human liver microsome, 0.005 mmol/L diclofenac (for CYP2C9), 0.01 mmol/L bufuralol (for […]), 0.005 mmol/L midazolam (for CYP3A4)). As an internal standard solution, a solution of each of stable isotopes of the metabolites (50 ng/mL [13C6] hydroxy diclofenac, 5 ng/mL [2H9] hydroxy bufuralol, and 5 ng/mL [13C6] hydroxy midazolam (all stable isotopes)) in methanol was prepared and used as a quenching solution.
(§2) Specifically, a metabolic reaction was initiated by adding and mixing 2 μL of a solution of a test compound in acetonitrile (or acetonitrile as a control) to 178 μL of a human liver microsome solution in ice water, followed by preincubation at 37° C. for 1 minute, and then adding 20 μL of a NADH/NADPH solution thereto. After incubation at 37° C. for 10 minutes, 50 μL of the reaction mixture was taken, and then it was added and mixed to 500 μL of a quenching solution to quech the reaction. The mixture was centrifuged (6130 g, 4° C., 10 minutes) and the supernatant was used as a sample for LC-MS/MS.
(§3) Peak area ratio ([peak area of metabolite]/[peak area of corresponding stable isotope]) was calculated for a metabolite and a stable isotope of the metabolite as measurement object. By comparing the peak area ratio of each test compound solution with that of the control, the inhibition rate (%) of each CYP species for each test compound was calculated from (1-[peak area ratio of each test compound solution]/[peak area ratio of control])×100.

The target in series [4] is T3, CYP2D6 (Homo sapiens, UniProt P10635).
T3 construct: a human liver microsome solution containing three CYP-specific substrates; from tissue; host or cells: human liver microsomes
Put plainly: CYP inhibition test (1): inhibition rate (%) at one concentration, CYP2D6. The format is in vitro ADME. As to conditions: human liver microsomes, pH 7.4, probe bufuralol (0.01 mmol/L); test compound 0.01 mmol/L, human liver microsome 0.1 mg/mL, substrate bufuralol, 37° C. 10 minutes; read-out: inhibition rate (%) 2D6. The method, then: as §1, §2, §3

T1 sequence (P31652 whole entry): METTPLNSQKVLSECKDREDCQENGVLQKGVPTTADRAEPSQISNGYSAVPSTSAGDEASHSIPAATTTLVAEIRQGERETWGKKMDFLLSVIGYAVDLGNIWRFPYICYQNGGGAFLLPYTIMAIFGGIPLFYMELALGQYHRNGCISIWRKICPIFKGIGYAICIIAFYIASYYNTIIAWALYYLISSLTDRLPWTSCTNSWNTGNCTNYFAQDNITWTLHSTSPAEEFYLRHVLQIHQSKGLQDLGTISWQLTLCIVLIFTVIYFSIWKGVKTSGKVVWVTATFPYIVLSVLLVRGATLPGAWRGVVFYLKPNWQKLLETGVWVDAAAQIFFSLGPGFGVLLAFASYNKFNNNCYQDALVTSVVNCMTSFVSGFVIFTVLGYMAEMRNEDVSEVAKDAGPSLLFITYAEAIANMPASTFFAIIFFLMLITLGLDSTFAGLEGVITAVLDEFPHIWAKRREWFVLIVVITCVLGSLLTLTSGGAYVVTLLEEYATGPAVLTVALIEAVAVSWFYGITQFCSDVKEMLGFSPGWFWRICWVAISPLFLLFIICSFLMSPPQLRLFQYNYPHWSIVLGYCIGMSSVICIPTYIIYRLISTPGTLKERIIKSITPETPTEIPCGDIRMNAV
T2 sequence (P11712 whole entry): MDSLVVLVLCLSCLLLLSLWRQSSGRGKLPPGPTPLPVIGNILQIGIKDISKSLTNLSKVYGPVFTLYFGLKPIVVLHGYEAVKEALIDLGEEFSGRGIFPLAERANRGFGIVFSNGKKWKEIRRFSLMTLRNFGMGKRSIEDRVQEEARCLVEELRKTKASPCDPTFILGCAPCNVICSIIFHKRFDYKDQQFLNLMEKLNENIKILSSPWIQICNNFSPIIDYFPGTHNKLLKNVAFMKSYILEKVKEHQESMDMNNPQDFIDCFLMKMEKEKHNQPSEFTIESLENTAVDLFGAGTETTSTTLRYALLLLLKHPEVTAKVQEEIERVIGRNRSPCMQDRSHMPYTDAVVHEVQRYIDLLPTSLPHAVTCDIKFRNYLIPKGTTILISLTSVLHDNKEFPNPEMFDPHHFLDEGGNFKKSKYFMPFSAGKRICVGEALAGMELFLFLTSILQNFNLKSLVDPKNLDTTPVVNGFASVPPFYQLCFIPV
T3 sequence (P10635 whole entry): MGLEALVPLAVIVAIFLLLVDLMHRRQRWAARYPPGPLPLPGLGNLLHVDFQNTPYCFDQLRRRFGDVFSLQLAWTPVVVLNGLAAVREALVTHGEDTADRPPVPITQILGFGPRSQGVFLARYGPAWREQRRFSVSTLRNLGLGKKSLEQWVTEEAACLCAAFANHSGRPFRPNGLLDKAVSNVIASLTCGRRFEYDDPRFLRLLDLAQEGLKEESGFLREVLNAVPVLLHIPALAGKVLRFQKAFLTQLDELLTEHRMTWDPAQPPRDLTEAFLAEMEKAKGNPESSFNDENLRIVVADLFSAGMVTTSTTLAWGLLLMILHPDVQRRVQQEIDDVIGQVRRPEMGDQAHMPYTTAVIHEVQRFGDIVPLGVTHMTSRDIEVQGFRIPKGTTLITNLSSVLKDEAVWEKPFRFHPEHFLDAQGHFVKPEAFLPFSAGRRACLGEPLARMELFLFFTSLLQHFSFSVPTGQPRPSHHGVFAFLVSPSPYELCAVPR

Usually microsomal CLint stands for a measure of how fast metabolising enzymes remove a compound, apart from limits set by blood flow. Higher therefore signals rapid turnover. As a reminder, the IC50 is the midpoint of a concentration-inhibition curve. In general, inhibition refers to the drop in the measured response relative to a control, in per cent. `CC1(C)CN(c2ccc(OC(F)(F)CO)c(F)c2F)[C@H]2CCCC[C@H]2N1` [Example 73]: the microsomal CLint at 0.001 mmol/L in series [1] is less than 50 µL/min/mg. Also, the IC50 in series [2] came to 8.7 nM. Moreover, the inhibition at 10 min, 0.01 mmol/L in series [3] is 4.8%; in series [4] it was 21.5%.
On to `CC1(C)CN(c2cc(Cl)c(OC(F)(F)CO)cc2F)[C@H]2CCCC[C@@H]2N1` [Example 75], for which the microsomal CLint at 0.001 mmol/L in series [1] was less than 50 µL/min/mg. In series [2], the IC50 is 9.4 nM. Also, the inhibition at 10 min, 0.01 mmol/L came to 9.1% in series [3] and 19.3% in series [4].
For `CC1(C)CN(c2cc(Cl)c(OC(F)(F)CO)cc2F)[C@@H]2CCCC[C@H]2N1` [Example 76], in that order: less than 50 µL/min/mg, 98.3 nM, 12.6% and 21.9%.
Consider `CC1(C)CN(c2cc(F)c(OC(F)(F)CO)cc2F)[C@H]2CCCC[C@@H]2N1` [Example 77], for which the microsomal CLint at 0.001 mmol/L in series [1] is less than 50 µL/min/mg. Further, in series [2], the IC50 stood at 42.3 nM. Moreover, the inhibition at 10 min, 0.01 mmol/L in series [3] stood at 7.9%; in series [4], 18.1%.
In series [1], `Cc1c(OC(F)(F)CO)ccc(N2CC(C)(C)N[C@H]3CCCC[C@@H]32)c1F` [Example 79] yielded a microsomal CLint at 0.001 mmol/L of less than 50 µL/min/mg. Besides, the IC50 in series [2] stood at 37.3 nM. The inhibition at 10 min, 0.01 mmol/L was determined as 8.9% in series [3] and 38.8% in series [4].
Molecule `CC1(C)CN(c2ccc(OC(F)(F)CO)c(Cl)c2F)[C@@H]2CCCC[C@H]2N1` [Example 80] returned a microsomal CLint at 0.001 mmol/L in series [1] of 57 µL/min/mg. Besides, the IC50 in series [2] is 62.8 nM. The inhibition at 10 min, 0.01 mmol/L in series [3] came out at 2%; in series [4] it was 20.9%.
